Test results as given in patent publication US12077503B2, “Substituted cyclic amides and their use as herbicides” (FMC CORPORATION, priority 2015, dated 2024).

Key:
Format in all cases: in vivo
[1] = tested on: ducksalad (Heteranthera limosa); assay: Test B flooded paddy test; conditions: Flood, 250 g ai/ha; 0 to 100 scale where 0 is no effect and 100 is complete control; 13 to 15 d
Outline: (§1)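 2-leaf plants; pots flooded 3 cm over soil; cpd added to paddy water; depth held; greenhouse 13–15 d; visual rating vs controls, 0 = no effect, 100 = complete control.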

[2] = tested on: barnyardgrass (Echinochloa crus-galli); assay: Test B flooded paddy test; conditions: Flood, 250 g ai/ha; 0 to 100 scale where 0 is no effect and 100 is complete control; 13 to 15 d
Outline: as §1

rice (Oryra sativa) = assay: Test B flooded paddy test; conditions: Flood, 250 g ai/ha; 0 to 100 scale where 0 is no effect and 100 is complete control; 13 to 15 d
Outline: as §1

[3] = tested on: sedge, umbrella (small-flower umbrella sedge, Cyperus difformis); assay: Test B flooded paddy test; conditions: Flood, 250 g ai/ha; 0 to 100 scale where 0 is no effect and 100 is complete control; 13 to 15 d
Outline: as §1

[4] = tested on: barnyardgrass (Echinochloa crus-galli); assay: Test A preemergence
Outline: (§2)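 Seeds sprayed preemergence with a directed soil spray, or plants at 2 to 10 cm height and one- to two-leaf stage sprayed postemergence, with test chemicals in a non-phytotoxic solvent mixture containing surfactant, in loam soil–sand blend. Injury rated visually against untreated controls after about 10 d in greenhouse, 0 (no effect) to 100 (complete control).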

[5] = tested on: ragweed (common ragweed, Ambrosia elatior); assay: Test A preemergence
Outline: as §2

[6] = tested on: ryegrass, Italian (Italian ryegrass, Lolium multiflorum); assay: Test A preemergence
Outline: as §2

[7] = tested on: giant foxtail (Setaria faberii); assay: Test A preemergence
Outline: as §2

Kochia (Kochia scoparia) [8] = assay: Test A preemergence
Outline: as §2

[9] = tested on: pigweed (Amaranthus retroflexus); assay: Test A preemergence
[10] = tested on: barnyardgrass (Echinochloa crus-galli); assay: Test A postemergence
Outline: as §2

[11] = tested on: blackgrass (Alopecurus myosuroides); assay: Test A postemergence
Outline: as §2

[12] = tested on: ragweed (common ragweed, Ambrosia elatior); assay: Test A postemergence
Outline: as §2

[13] = tested on: Galium (catchweed bedstraw, Galium aparine); assay: Test A postemergence
Outline: as §2

[14] = tested on: ryegrass, Italian (Italian ryegrass, Lolium multiflorum); assay: Test A postemergence
Outline: as §2

[15] = tested on: wheat (Triticum aestivum); assay: Test A postemergence
Outline: as §2

[16] = tested on: giant foxtail (Setaria faberii); assay: Test A postemergence
Outline: as §2

Kochia (Kochia scoparia) [17] = assay: Test A postemergence
Outline: as §2

[18] = tested on: pigweed (Amaranthus retroflexus); assay: Test A postemergence
Outline: as §2

corn (Zea mays) = assay: Test A postemergence
Outline: as §2

[19] = 125 g ai/ha, Preemergence, visual injury after approximately 10 d, 0 to 100 scale where 0 is no effect and 100 is complete control
[20] = 500 g ai/ha, preemergence, 0 to 100 scale, 0 = no effect, 100 = complete control
[21] = 125 g ai/ha, postemergence, visual rating after approx. 10 d, 0 to 100 scale (0 no effect, 100 complete control)
[22] = 500 g ai/ha, postemergence, visual injury, 0 to 100 scale (0 no effect, 100 complete control), approx. 10 d
[23] = Preemergence, 500 g ai/ha, visual injury approx. 10 d
[24] = Postemergence, 500 g ai/ha, 0 to 100 scale where 0 is no effect and 100 is complete control

Compound	Plant response rating, Ducksalad [1]	Plant response rating, Barnyardgrass [2]	Plant response rating, Rice (rice (Oryra sativa))	Plant response rating, Sedge, Umbrella [3]	Plant response rating, Barnyardgrass [4, 19]	Plant response rating, Ragweed [5, 19]	Plant response rating, Ryegrass, Italian [6, 19]	Plant response rating, Foxtail, Giant [7, 19]	Plant response rating, Kochia (Kochia (Kochia scoparia) [8]; [19])	Plant response rating, Pigweed [9, 19]	Plant response rating, Barnyardgrass [10, 21]	Plant response rating, Blackgrass [11, 21]	Plant response rating, Ragweed [12, 21]	Plant response rating, Galium [13, 21]	Plant response rating, Ryegrass, Italian [14, 21]	Plant response rating, Wheat [15, 21]	Plant response rating, Foxtail, Giant [16, 21]	Plant response rating, Kochia (Kochia (Kochia scoparia) [17]; [21])	Plant response rating, Pigweed [18, 21]	Plant response rating, Corn (corn (Zea mays); [21])	further results
CCc1cc(C2CNC(=O)C2C(=O)Nc2ccccc2F)cs1 (racemic) [Compound 657]	100	40	0	0	90	20	20	90	20	20	90	0	0	0	0	0	0	0	0	0	Plant response rating, Barnyardgrass [4, 20]: 90; Plant response rating, Ragweed [5, 20]: 20; Plant response rating, Ryegrass, Italian [6, 20]: 30; Plant response rating, Foxtail, Giant [7, 20]: 90; Plant response rating, Kochia (Kochia (Kochia scoparia) [8]; [20]): 40; Plant response rating, Pigweed [9, 20]: 30; Plant response rating, Barnyardgrass [10, 22]: 90; Plant response rating, Blackgrass [11, 22]: 30; Plant response rating, Ragweed [12, 22]: 0; Plant response rating, Galium [13, 22]: 30; Plant response rating, Ryegrass, Italian [14, 22]: 0; Plant response rating, Wheat [15, 22]: 0; Plant response rating, Foxtail, Giant [16, 22]: 60; Plant response rating, Kochia (Kochia (Kochia scoparia) [17]; [22]): 0; Plant response rating, Pigweed [18, 22]: 0; Plant response rating, Corn (corn (Zea mays); [22]): 0
O=C1NCC(c2cc(F)ccc2F)C1C(=O)Nc1ccc(F)cc1F (racemic) [Compound 545]	0	0	0	0	20	0	0	80	0	0	0	0	0	0	0	0	0	0	0	0	Barnyardgrass plant response rating (0 to 100 scale, 0 is no effect, 100 is complete control) [4, 23]: 70; Ragweed plant response rating (0 to 100 scale, 0 is no effect, 100 is complete control) [5, 23]: 0; Ryegrass, Italian plant response rating (0 to 100 scale, 0 is no effect, 100 is complete control) [6, 23]: 0; Foxtail, Giant plant response rating (0 to 100 scale, 0 is no effect, 100 is complete control) [7, 23]: 90; Kochia plant response rating (0 to 100 scale, 0 is no effect, 100 is complete control) (Kochia (Kochia scoparia) [8]; [23]): 0; Pigweed plant response rating (0 to 100 scale, 0 is no effect, 100 is complete control) [9, 23]: 0; Plant response rating, Barnyardgrass [10, 24]: 80; Plant response rating, Blackgrass [11, 24]: 0; Plant response rating, Ragweed [12, 24]: 0; Plant response rating, Galium [13, 24]: 0; Plant response rating, Ryegrass, Italian [14, 24]: 0; Plant response rating, Wheat [15, 24]: 0; Plant response rating, Foxtail, Giant [16, 24]: 70; Plant response rating, Kochia (Kochia (Kochia scoparia) [17]; [24]): 0; Plant response rating, Pigweed [18, 24]: 0; Plant response rating, Corn (corn (Zea mays); [24]): 0
